Results from patent US20200291444A1, “Macrocyclisation Tags” (Oxford University Innovation LTD, priority 2017, published 2020).
No end group written: not given here.

How the values were obtained:
PCY1 [1] = assay: PCY1 macrocyclisation of hybrid precursor peptides containing non-amino acids (Maldi); type: biochemical, Saponaria vaccaria; details: 16 h incubation with PCY1, Maldi spectrum
Method: All kinetic measurements (activity tests, progress curves and initial-rate experiments) were performed as discontinuous assays analyzing samples via LC/MS or MALDI (10-mer activity test). Reactions were performed in 20 mM Tris pH 8.5, 100 mM NaCl, 5 mM DTT (for progress curves 0.2 mg mL-1 BSA was included).17 Reactions were performed at 30° C. and at various time points 50 μL samples were quenched with 20 μL of 6% (v/v) TFA. Samples (50 μL) were loaded onto a ZORBAX SBC18, 5 μm, 9.4 mm×50 mm (Agilent) column connected to an Agilent LC-MS instrument (G6130B Single Quad, Agilent Technologies). Reactants were separated from products using a gradient from A (H2O with 0.1% formic acid) to 80% B (acetonitrile), at a rate of 1.5 mL/min for 8.75 min. For data analysis, ion count peaks and UV absorbance peaks were integrated using Agilent ChemStation software. For data analysis involving quantitative mass spec integration, calibration curves with macrocyclic peptide product were performed in triplicate in order to linearly correlate ion counts to cyclic product concentration. Data fitting and plotting was performed with Prism 6. […]

[2] = tested on: T1, 14mer truncated substrate
T1 sequence: IWGIGCNPWTAEHV

25mer substrate = tested on: T2, 25mer substrate
T2 sequence: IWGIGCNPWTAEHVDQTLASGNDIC

[3] = tested on: T3, 13mer truncated substrate
T3 sequence: IWGIGCNPWTAEH

PCY1:S562A = assay: ITC equilibrium binding to PCY1:S562A; design: species or system Saponaria vaccaria; details: ITC, 25° C.
Method: (§1) All PCY1 samples were buffer-exchanged or solubilized into buffer F and further diluted in the same batch of buffer F, in order to minimize buffer mismatches. ITC binding experiments were performed using a cell solution containing PCY1:S562A and a titrant solution with each peptide used. […] The measurements were performed at a stir speed of 750 rpm at 25° C. using a reference power of 10 μcal/s, except for A1-NH2 (5 μcal/s). A buffer titration control in which peptide was titrated into buffer was performed for each experiment. Data processing, fitting to a non-linear one-site binding model, and data plotting was performed using MicroCal PEAQ ITC analysis software (Malvern). […] The measurement was performed in buffer at 30° C., at 750 rpm using a reference power of 5 μcal/s.

PCY1 [4] = assay: LC/MS time course of macrocyclisation by PCY1; type: biochemical, Saponaria vaccaria; details: 200 μM substrate, 3.6 μM PCY1
Method: (§2) All kinetic measurements (activity tests, progress curves and initial-rate experiments) were performed as discontinuous assays analyzing samples via LC/MS or MALDI (10-mer activity test). Reactions were performed in 20 mM Tris pH 8.5, 100 mM NaCl, 5 mM DTT (for progress curves 0.2 mg mL-1 BSA was included).17 Reactions were performed at 30° C. and at various time points 50 μL samples were quenched with 20 μL of 6% (v/v) TFA. Samples (50 μL) were loaded onto a ZORBAX SBC18, 5 μm, 9.4 mm×50 mm (Agilent) column connected to an Agilent LC-MS instrument (G6130B Single Quad, Agilent Technologies). Reactants were separated from products using a gradient from A (H2O with 0.1% formic acid) to 80% B (acetonitrile), at a rate of 1.5 mL/min for 8.75 min. For data analysis, ion count peaks and UV absorbance peaks were integrated using Agilent ChemStation software. For data analysis involving quantitative mass spec integration, calibration curves with macrocyclic peptide product were performed in triplicate in order to linearly correlate ion counts to cyclic product concentration. Data fitting and plotting was performed with Prism 6.
PCY1 extracted from S. vaccaria seeds has been previously described to have a turnover number of ˜1 h^−1 for PresegA1.^17 The enzyme produced heterologously in E. coli was evaluated by LC/MS-based time course experiments macrocyclizing 200 μM of PresegA1, PresegB1 or PresegF1 with 3.6 μM PCY1. […] We chose to investigate the slowest and fastest substrate by steady-state kinetics using an LC/MS assay and UV280 nm quantification. […] Under the ITC conditions, the measured kcat (0.14±0.01 s^−1) was a factor of three lower than the LC/MS derived values. […] Therefore, we resorted to an LC/MS assay followed by quantification using mass ion counts, relying on a calibration curve employing the macrocyclic peptide product as a standard (FIG. 2b).

PCY1 [5] = details: PCY1 extracted from S. vaccaria seeds; cited from earlier work
PCY1 [6] = assay: Single injection kinetic ITC with PCY1; type: biochemical, Saponaria vaccaria; details: 30° C.
Method: as §1, with “used. All peptides were used at 200 μM except for presegetalin A1-NH2 (700 μM).” for “used.”

PCY1 [7] = assay: LC/MS steady-state kinetics of macrocyclisation by PCY1; type: biochemical, Saponaria vaccaria
Method: as §2
PCY1 extracted from S. vaccaria seeds has been previously described to have a turnover number of ˜1 h^−1 for PresegA1.^17 The enzyme produced heterologously in E. coli was evaluated by LC/MS-based time course experiments macrocyclizing 200 μM of PresegA1, PresegB1 or PresegF1 with 3.6 μM PCY1. These substrates were chosen as they produce 6, 5 and 9 residue macrocycles, respectively, show variability in the length of the C-terminal tail sequence, and have a different C-terminal core residue (proline in PresegF1, alanine in the other two) (FIG. 1b). PresegB1 was completely macrocyclized in ˜30 min, PresegA1 in ˜50 min and PresegF1 in >3 h (FIG. 2a). We chose to investigate the slowest and fastest substrate by steady-state kinetics using an LC/MS assay and UV280 nm quantification. […] Under the ITC conditions, the measured kcat (0.14±0.01 s^−1) was a factor of three lower than the LC/MS derived values. […] Therefore, we resorted to an LC/MS assay followed by quantification using mass ion counts, relying on a calibration curve employing the macrocyclic peptide product as a standard (FIG. 2b).

GmPOPB_S577A [8] = molecular target: T4, GmPOPB_S577A (Galerina marginata, UniProt H2E7Q8, S577A); assay: ITC binding to inactive mutant GmPOPB_S577A
T4 construct: His-tag (TEV-cleavable) (cleaved yes); made in house; host or cells: E. coli BL21(DE3)
T4 sequence (H2E7Q8 1-730 S577A): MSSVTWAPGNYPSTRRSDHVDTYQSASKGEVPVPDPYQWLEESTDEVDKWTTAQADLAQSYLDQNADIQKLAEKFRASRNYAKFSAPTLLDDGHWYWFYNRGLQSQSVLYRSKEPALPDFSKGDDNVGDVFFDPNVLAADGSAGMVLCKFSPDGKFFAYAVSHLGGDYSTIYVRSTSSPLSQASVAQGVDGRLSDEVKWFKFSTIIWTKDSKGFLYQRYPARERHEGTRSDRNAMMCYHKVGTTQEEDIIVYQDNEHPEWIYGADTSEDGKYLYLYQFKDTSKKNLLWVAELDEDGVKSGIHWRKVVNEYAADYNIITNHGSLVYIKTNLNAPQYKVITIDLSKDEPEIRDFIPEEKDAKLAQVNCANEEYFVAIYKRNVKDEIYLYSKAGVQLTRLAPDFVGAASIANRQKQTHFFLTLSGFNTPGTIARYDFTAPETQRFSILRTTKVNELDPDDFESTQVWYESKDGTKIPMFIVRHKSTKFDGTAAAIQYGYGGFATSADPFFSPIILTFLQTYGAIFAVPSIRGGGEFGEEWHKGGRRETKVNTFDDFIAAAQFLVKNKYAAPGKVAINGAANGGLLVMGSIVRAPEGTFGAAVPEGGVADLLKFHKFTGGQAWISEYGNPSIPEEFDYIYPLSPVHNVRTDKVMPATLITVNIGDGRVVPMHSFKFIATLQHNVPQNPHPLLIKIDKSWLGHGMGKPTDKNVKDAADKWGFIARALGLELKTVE

GmPOPB_S577A [9] = molecular target: T4, GmPOPB_S577A; details: previously shown; cited from earlier work
[10] = molecular target: T5, GmPOPB_S577A (Galerina marginata), H2E7Q8; assay: ITC, peptide titrated into GmPOPB_S577A, 20 C
T5 chain: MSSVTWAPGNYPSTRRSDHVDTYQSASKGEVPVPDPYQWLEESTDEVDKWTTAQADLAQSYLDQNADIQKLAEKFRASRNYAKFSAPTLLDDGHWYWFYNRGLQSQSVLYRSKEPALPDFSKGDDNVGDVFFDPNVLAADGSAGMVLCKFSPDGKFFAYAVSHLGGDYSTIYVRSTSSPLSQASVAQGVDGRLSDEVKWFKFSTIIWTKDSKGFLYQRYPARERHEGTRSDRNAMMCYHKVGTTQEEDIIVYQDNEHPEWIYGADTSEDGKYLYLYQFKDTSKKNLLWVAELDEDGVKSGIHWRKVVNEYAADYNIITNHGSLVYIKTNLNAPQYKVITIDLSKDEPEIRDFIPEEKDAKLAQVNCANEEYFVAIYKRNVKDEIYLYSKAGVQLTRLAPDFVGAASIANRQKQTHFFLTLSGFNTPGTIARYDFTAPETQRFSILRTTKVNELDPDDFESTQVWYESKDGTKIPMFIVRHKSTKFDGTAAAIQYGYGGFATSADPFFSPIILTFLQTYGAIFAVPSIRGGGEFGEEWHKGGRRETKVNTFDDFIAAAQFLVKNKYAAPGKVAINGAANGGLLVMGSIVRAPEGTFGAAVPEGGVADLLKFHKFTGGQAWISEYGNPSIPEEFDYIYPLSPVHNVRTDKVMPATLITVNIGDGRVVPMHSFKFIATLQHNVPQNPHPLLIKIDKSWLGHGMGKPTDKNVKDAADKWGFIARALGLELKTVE

PresegB1 = assay: Activity test of PCY1 variants with PresegB1 as substrate; type: biochemical, Saponaria vaccaria

FSA-8Aoc-SKPIQT-NH2
conversion rate overnight (PCY1 [1]): around 50%

GmPOPB (Galerina marginata POPB), wild type
Km, Michaelis-Menten kinetics of macrocyclisation [2]: the 14mer possesses higher Km (380 µM)
Km, Michaelis-Menten kinetics of macrocyclisation (25mer substrate): the 25mer substrate (50 µM)
Km, Michaelis-Menten kinetics of macrocyclisation [3]: the 13mer substrate has a Km (25 µM)

PresegA1: native linear PCY1 substrate presegetalin A1; produces a 6 residue macrocycle (GVPVWAFQAKDVENASAPV; PresegA1)
Kd (PCY1:S562A): ~200 nM
time until completely macrocyclized (PCY1 [4]): ~50 min
turnover number (PCY1 [5]): ~1 h⁻¹

PresegB1: native linear PCY1 substrate presegetalin B1; produces a 5 residue macrocycle (GVAWAFQAKDVENASAPV)
kcat (table head prints kout) (PCY1 [6]): 0.14 ± 0.01 s⁻¹
Km (PCY1 [6]; read-out: Km (table head prints Kin)): 250 ± 10 nM
Kd (PCY1:S562A): ~200 nM
kcat (table head prints kout) (PCY1 [7]; LC/MS (UV280 nm), 30° C.): 0.37 ± 0.02 s⁻¹
Km (PCY1 [7]; LC/MS (UV280 nm), 30° C., read-out: Km (table head prints Kin)): 450 ± 170 nM
processing by PCY1 (in words) (PCY1 [7]; steady state kinetics, FIG. 7): rapidly processed
time until completely macrocyclized (PCY1 [4]): ~30 min

VGAG-8Aoc-FPIQT-NH2
conversion overnight (in words) (PCY1 [1]): almost entirely converted

WTAEHVDQTLASGNDIC [17mer-recogSeq, reference compound]
Kd (GmPOPB_S577A [8]): 430 ± 10 nM
difference in ΔG between the 17mer recognition sequence and the 25mer peptide (GmPOPB_S577A [9]): 1.34 kcal/mol

MFDTNATRLPIWGIGCNPWTAEHVDQTLASGNDIC (modifications not checked) [35mer substrate (GmAMA1)]
Kd [10]: 120 nM

B1: S562A: PCY1 variant (protein)
chain: MATSGFSKPLHYPPVRRDETVVDDYFGVKVADPYRWLEDPNSEETKEFVDNQEKLANSVLEECELIDKFKQKIIDFVNFPRCGVPFRRANKYFHFYNSGLQAQNVFQMQDDLDGKPEVLYDPNLREGGRSGLSLYSVSEDAKYFAFGIHSGLTEWVTIKILKTEDRSYLPDTLEWVKFSPAIWTHDNKGFFYCPYPPLKEGEDHMTRSAVNQEARYHFLGTDQSEDILLWRDLENPAHHLKCQITDDGKYFLLYILDGCDDANKVYCLDLTKLPNGLESFRGREDSAPFMKLIDSFDASYTAIANDGSVFTFQTNKDAPRKKLVRVDLNNPSVWTDLVPESKKDLLESAHAVNENQLILRYLSDVKHVLEIRDLESGALQHRLPIDIGSVDGITARRRDSVVFFKFTSILTPGIVYQCDLKNDPTQLKIFRESVVPDFDRSEFEVKQVFVPSKDGTKIPIFIAARKGISLDGSHPCEMHGYGGFGINMMPTFSASRIVFLKHLGGVFCLANIRGGGEYGEEWHKAGFRDKKQNVFDDFISAAEYLISSGYTKARRVAIEGGANGGLLVAACINQRPDLFGCAEANCGVMDMLRFHKFTLGYLWTGDYGCSDKEEEFKWLIKYSPIHNVRRPWEQPGNEETQYPATMILTADHDDRVVPLHSFKLLATMQHVLCTSLEDSPQKNPIIARIQRKAAHYGRATMTQIAEVADRYGFMAKALEAPWID
relative activity of PCY1 variant (in words) (PresegB1): inactive
